# Measurements from US8710062B2, “Piperazinedione compounds” (Taipei Medical University, priority 2011, dated 2014).
# Structures can show the parent of a compound that is named as a salt.
# How the values were obtained:
# [1] = tested on: human HL-60 promyelocytic leukemia xenograft; experiment: HL-60 xenograft in SCID mice; settings: for median TTE (time to endpoint): control median TTE 11.0 days
# Experimental: Nude-athymic mice were maintained in accordance with the Institutional Animal Care and Use Committee procedures and guidelines.
# The medium was supplemented with 10% heat-inactivated fetal bovine serum and 2 mM glutamine.
# The human HL-60 promyelocytic leukemia cells used for implantation were harvested during log phase growth and resuspended in phosphate-buffered saline at 8.0×10^7 cells/mL. Each mouse was injected s.c. in the right flank with 1.6×10^7 cells (0.2 mL cell suspension). Tumors were monitored twice weekly and then daily as their volumes approached 100 mm^3. […] Tumor size, in mm3, was calculated as: Tumor Volume=w2×l, where w=width and l=length in mm of the tumor. Tumor weight can be estimated with the assumption that 1 mg is equivalent to 1 mm3 of tumor volume.
# The agent was given dose at 5 mg/kg once every day (qd) and every other day (q2d) to endpoint. Treatments began on Day 1 (D1) in groups of male SCID mice (n=6) bearing established (˜444.4 mm3) subcutaneous tumors. […] Logrank tests determine significance of the differences between TTE values for drug-treated and control mice, at P≦0.05.
# [2] = tested on: 60 Human Cancer Cell Lines (NCI-60); experiment: Broad-spectrum anticancer activity (NCI-60, SRB); format: cell-based; settings: mean against leukemia, NSCLC, colon, CNS, melanoma, ovarian, renal, prostate and breast cancer, 48 h, read-out: mean pIC50 (converted)
# Experimental: Broad-spectrum anticancer activities were conducted by NCI/NIH following standard protocols.
# Human tumor cell lines were grown in RPMI 1640 medium containing 5% fetal bovine serum and 2 mM L-glutamine. For a typical screening experiment, cells were inoculated into 96-well microtiter plates in 100 μL at the plating densities ranging from 5,000 to 40,000 cells/well depending on the doubling time of individual cell lines. After cell inoculation, the microtiter plates were incubated at 37° C., 5% CO2, 95% air and 100% relative humidity for 24 h prior to addition of experimental drugs. […]
# Following drug addition, the plates were incubated for an additional 48 h at 37° C., 5% CO2, 95% air, and […]. […] Bound stain was subsequently solubilized with 10 mM trizma base, and the absorbance was read on an automated plate reader at a wavelength of 515 nm. […] Using the seven absorbance measurements [time zero, (Tz), control growth, (C), and test growth in the presence of drug at the five concentration levels (Ti)], the percentage growth was calculated at each of the drug concentrations levels. Percentage growth inhibition was calculated as: [(Ti−Tz)/(C−Tz)]×100 for concentrations for which Ti>/=Tz [(Ti−Tz)/Tz]×100 for concentrations for which Ti<Tz.
# Three dose response parameters were calculated for each experimental agent. […]
# RET = RET (Homo sapiens, UniProt P07949); experiment: Kinome inhibition assay; format: biochemical
# Experimental: (§1) Kinome inhibition studies were conducted following the procedures described in literature. […] In general, each purified kinase was incubated with its substrate in buffer (MOPS buffer or HEPES buffer) containing an essential metal co-enzyme or cofactor, antioxidant, and ATP (gamma-P^32 radio-labeled ATP or cold ATP). Compound 2 was co-incubated with the kinase solution thus obtained for 0.5-1 hr at 37° C. The reaction was stopped by boiling the reaction solution with an extra SDS solution. The phosphorylation level of the substrate was monitored ether by quantification of the radio-labeled substrate or by quantification of phosphor-substrate specific antibodies. In each study, a reference standard was run as an integral part to ensure the validity of the experimental results obtained. The table below includes the IC50 values obtained from this experiment.
# SRPK1 = SRPK1 (Homo sapiens, UniProt Q96SB4); experiment: Kinome inhibition assay; format: biochemical
# Experimental: as §1
# CAMK2D (KCC2D) = CAMK2D (KCC2D) (Homo sapiens, UniProt Q13557); experiment: Kinome inhibition assay; format: biochemical
# Chain of CAMK2D (KCC2D) (Q13557 whole entry): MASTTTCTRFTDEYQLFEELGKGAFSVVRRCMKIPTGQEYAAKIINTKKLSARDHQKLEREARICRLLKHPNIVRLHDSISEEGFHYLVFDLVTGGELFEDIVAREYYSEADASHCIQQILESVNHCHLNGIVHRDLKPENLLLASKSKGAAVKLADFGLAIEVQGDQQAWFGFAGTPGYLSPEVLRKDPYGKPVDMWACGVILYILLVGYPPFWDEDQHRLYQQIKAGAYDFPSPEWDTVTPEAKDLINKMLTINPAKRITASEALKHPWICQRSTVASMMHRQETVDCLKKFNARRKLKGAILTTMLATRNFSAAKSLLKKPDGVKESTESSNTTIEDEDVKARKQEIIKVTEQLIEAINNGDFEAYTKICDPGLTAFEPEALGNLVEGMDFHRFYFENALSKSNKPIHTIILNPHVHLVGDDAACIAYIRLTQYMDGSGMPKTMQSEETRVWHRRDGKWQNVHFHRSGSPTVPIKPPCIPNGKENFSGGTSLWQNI
# Experimental: as §1
# CDC42BPB = CDC42BPB (Homo sapiens, UniProt Q9Y5S2); experiment: Kinome inhibition assay; format: biochemical
# Chain of CDC42BPB (Q9Y5S2 whole entry): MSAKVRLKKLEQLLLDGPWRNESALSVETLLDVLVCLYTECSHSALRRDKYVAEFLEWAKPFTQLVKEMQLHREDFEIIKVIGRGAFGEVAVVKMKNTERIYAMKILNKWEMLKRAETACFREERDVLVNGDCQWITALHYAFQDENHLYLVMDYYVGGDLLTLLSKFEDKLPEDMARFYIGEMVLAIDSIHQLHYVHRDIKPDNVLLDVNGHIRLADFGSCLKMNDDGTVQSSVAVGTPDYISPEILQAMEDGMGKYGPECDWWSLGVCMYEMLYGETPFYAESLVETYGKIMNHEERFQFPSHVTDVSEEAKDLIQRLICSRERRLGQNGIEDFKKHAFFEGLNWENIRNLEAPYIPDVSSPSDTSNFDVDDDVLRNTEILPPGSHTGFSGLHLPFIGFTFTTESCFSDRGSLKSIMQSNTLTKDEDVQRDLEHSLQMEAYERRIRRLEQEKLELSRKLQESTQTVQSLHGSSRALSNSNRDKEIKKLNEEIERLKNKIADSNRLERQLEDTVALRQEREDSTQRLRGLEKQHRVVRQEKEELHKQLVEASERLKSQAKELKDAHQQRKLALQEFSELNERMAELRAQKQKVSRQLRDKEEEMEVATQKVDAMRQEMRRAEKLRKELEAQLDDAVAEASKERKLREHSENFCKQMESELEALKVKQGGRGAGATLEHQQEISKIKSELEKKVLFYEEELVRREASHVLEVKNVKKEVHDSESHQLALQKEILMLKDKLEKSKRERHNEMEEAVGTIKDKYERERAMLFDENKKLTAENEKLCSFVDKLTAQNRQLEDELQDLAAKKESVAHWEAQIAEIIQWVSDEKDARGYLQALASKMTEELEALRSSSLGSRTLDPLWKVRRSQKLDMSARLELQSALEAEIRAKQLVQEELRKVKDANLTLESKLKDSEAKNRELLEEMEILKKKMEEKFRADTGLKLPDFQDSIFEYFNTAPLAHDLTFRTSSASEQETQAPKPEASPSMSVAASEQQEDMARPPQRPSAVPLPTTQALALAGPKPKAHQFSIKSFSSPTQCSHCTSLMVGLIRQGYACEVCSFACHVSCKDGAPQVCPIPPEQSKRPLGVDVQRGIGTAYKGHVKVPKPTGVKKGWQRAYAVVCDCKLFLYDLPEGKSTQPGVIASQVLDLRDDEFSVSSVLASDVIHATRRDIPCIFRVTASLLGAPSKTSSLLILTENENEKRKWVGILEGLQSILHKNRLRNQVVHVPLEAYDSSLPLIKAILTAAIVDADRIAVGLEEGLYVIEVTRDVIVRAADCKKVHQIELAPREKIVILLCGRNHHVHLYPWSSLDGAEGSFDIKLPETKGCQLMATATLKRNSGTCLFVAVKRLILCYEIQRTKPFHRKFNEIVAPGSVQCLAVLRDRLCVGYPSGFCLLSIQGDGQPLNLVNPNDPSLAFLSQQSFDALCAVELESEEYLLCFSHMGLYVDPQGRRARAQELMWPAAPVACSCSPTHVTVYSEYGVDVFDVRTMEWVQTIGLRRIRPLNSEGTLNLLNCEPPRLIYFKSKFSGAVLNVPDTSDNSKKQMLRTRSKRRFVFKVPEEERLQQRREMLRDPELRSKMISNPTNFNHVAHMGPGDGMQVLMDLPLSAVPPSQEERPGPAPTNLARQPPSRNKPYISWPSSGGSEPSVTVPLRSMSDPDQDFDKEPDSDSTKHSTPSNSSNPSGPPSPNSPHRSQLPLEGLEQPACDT
# Experimental: as §1
# LMK1 = LMK1 (Homo sapiens, UniProt P53667); experiment: Kinome inhibition assay; format: biochemical
# Chain of LMK1 (P53667 whole entry): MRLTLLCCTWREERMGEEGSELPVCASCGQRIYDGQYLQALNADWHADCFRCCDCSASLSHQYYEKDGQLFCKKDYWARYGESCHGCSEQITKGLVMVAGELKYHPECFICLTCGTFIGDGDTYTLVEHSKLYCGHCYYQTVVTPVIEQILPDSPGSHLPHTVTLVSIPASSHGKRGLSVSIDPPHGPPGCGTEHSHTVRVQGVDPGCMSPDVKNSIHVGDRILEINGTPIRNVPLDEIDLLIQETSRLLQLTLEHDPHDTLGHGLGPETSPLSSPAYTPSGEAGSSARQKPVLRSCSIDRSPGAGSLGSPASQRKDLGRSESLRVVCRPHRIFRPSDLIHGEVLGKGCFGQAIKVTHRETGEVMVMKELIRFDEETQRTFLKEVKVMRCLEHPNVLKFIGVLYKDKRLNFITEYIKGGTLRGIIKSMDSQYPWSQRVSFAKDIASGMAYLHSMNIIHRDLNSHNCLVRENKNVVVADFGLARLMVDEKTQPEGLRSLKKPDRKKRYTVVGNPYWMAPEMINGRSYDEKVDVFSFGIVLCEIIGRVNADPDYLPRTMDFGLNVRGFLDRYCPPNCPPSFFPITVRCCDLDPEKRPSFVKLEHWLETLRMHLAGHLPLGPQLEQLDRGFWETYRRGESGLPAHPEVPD
# Experimental: as §1
# ABL1 = ABL1 (Mus musculus, UniProt P00520); experiment: Kinome inhibition assay; format: biochemical
# Experimental: as §1
# AKT1 (PRKBA) = AKT1 (PRKBA) (Homo sapiens, UniProt P31749); experiment: Kinome inhibition assay; format: biochemical
# Experimental: as §1
# NTRK1 (TRKA) = NTRK1 (TRKA) (Homo sapiens, UniProt P04629); experiment: Kinome inhibition assay; format: biochemical
# Experimental: as §1
# FER (TYK3) = FER (TYK3) (Homo sapiens, UniProt P16591); experiment: Kinome inhibition assay; format: biochemical
# Experimental: as §1
# AURKA (Aurora-A) = AURKA (Aurora-A) (Homo sapiens, UniProt O14965); experiment: Kinome inhibition assay; format: biochemical
# Chain of AURKA (Aurora-A) (O14965 whole entry): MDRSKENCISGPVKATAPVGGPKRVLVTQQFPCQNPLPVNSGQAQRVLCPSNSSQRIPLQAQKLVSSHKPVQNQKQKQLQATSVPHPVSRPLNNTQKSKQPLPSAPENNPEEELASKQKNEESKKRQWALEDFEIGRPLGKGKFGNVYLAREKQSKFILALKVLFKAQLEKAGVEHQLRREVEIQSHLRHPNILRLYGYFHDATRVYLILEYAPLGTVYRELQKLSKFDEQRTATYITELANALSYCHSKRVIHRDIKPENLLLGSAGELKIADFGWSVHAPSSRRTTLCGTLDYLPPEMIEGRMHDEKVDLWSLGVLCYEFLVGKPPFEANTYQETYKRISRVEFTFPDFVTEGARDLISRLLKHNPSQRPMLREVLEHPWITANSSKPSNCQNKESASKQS
# Experimental: as §1
# Insulin Receptor = Insulin Receptor (Homo sapiens, UniProt P06213); experiment: Kinome inhibition assay; format: biochemical
# Experimental: as §1
# PDK1 = PDK1 (Homo sapiens, UniProt O15530); experiment: Kinome inhibition assay; format: biochemical
# Experimental: as §1
# MET (HGFR) = MET (HGFR) (Homo sapiens, UniProt P08581); experiment: Kinome inhibition assay; format: biochemical
# Chain of MET (HGFR) (P08581 25-1390): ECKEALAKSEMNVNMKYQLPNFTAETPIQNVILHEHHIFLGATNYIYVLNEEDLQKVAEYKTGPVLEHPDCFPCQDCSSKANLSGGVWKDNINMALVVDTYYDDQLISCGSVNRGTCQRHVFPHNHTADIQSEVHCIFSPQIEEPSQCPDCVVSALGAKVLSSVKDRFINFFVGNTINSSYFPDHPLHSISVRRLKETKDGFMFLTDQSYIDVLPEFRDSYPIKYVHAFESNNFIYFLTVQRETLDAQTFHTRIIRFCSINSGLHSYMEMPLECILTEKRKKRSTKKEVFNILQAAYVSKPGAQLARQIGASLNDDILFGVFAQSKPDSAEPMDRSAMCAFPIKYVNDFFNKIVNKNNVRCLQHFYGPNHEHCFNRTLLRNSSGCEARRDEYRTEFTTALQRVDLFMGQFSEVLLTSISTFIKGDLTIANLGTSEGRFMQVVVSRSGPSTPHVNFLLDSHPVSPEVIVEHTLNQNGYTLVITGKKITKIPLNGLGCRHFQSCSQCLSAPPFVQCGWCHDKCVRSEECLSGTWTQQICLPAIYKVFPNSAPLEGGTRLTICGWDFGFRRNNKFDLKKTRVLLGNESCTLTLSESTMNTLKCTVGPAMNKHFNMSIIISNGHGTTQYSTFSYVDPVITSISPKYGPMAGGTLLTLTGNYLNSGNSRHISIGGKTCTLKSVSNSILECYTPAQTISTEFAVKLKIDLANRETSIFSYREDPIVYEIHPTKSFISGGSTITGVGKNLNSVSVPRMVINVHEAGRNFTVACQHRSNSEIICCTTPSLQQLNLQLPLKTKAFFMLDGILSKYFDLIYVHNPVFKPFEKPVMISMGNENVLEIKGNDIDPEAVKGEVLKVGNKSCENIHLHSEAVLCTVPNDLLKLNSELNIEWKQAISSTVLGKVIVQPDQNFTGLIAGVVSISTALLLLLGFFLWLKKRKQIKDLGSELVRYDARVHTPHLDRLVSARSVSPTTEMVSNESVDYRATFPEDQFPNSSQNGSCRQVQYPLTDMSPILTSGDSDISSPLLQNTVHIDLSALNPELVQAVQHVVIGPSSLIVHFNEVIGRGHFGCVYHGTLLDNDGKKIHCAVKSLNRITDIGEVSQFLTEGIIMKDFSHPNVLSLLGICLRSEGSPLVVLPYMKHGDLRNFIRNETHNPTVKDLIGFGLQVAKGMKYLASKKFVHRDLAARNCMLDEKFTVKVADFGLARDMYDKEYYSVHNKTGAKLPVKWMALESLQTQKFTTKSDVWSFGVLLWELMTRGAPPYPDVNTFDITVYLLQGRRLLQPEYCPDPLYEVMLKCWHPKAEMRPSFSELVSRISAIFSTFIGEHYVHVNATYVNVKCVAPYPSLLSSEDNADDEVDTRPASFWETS
# Experimental: as §1
# [3] = 5 mg/kg p.o. every other day (q2d)
# [4] = @ 10 μM, read-out: Single dose inhibition
# [5] = @ 30 μM, read-out: Single dose inhibition
compound,measurement,setting,value
"O=c1[nH]/c(=C\c2ccc(OCc3ccncc3)cn2)c(=O)[nH]/c1=C\c1ccccc1 [Compound 2, 3-benzylidene-6-((5-(pyridin-4-ylmethoxy)pyridin-2-yl)methylene)piperazine-2,5-dione methanesulfonic acid salt]",% TGD (percent tumor growth delay),[1]; [3],120%
same,T−C,[1]; [3],13.2 days
same,median TTE (time to endpoint),[1]; [3],24.2 days
same,maximum BW loss,"[1]; 5 mg/kg p.o. every other day (q2d), on day 8",4.2%
same,% TGD (percent tumor growth delay),[1]; 5 mg/kg p.o. once a day (qd),29%
same,T−C,[1]; 5 mg/kg p.o. once a day (qd),3.2 days
same,median TTE (time to endpoint),[1]; 5 mg/kg p.o. once a day (qd),14.2 days
same,treatment related deaths,"[1]; 5 mg/kg p.o. once a day (qd), n=6",Two
same,maximum BW loss,"[1]; 5 mg/kg p.o. once a day (qd), on day 11",1.9%
same,IC50,[2],0.0525 µM
same,inhibition at 10 µM,RET; [4],73%
same,IC50,"RET; RET, Human",4.89 µM
same,inhibition at 10 µM,SRPK1; [4],61%
same,IC50,"SRPK1; SRPK1, Human",10.6 µM
same,inhibition at 10 µM,CAMK2D (KCC2D); [4],70%
same,IC50,"CAMK2D (KCC2D); CAMK2D (KCC2D), Human",7.39 µM
same,inhibition at 10 µM,CDC42BPB; [4],52%
same,IC50,"CDC42BPB; CDC42BPB, Human",8.18 µM
same,inhibition at 10 µM,LMK1; [4],68%
same,IC50,"LMK1; LMK1, Human",5.8 µM
same,inhibition at 10 µM,ABL1; [4],90%
same,IC50,"ABL1; ABL1, Mouse",3.17 µM
same,inhibition at 10 µM,AKT1 (PRKBA); [4],93%
same,IC50,"AKT1 (PRKBA); AKT1 (PRKBA), Human",3.93 µM
same,inhibition at 30 µM,NTRK1 (TRKA); [5],66%
same,IC50,"NTRK1 (TRKA); NTRK1 (TRKA), Human",17.4 µM
same,inhibition at 10 µM,FER (TYK3); [4],55%
same,IC50,"FER (TYK3); FER (TYK3), Human",7.23 µM
same,inhibition at 30 µM,AURKA (Aurora-A); [5],73%
same,IC50,"AURKA (Aurora-A); AURKA (Aurora-A), Human",13.7 µM
same,inhibition at 3 µM,"Insulin Receptor; @ 3 μM, read-out: Single dose inhibition",70%
same,IC50,"Insulin Receptor; Insulin Receptor, Human",1.83 µM
same,inhibition at 10 µM,PDK1; [4],59%
same,IC50,"PDK1; PDK1, Human",8.18 µM
same,inhibition at 30 µM,MET (HGFR); [5],79%
same,IC50,"MET (HGFR); MET (HGFR), Human",12.3 µM
